Data set [1] can be described thus: [3H]Thymidine incorporation assay (cell toxicity). Conditions: human. For orientation: Incorporation of labelled thymidine or its analogues reports DNA synthesis.
The subject of data set [2] is HCV replicon (genotype 1b) in Huh7 cell line ET. The data set is described as follows: microbe, parasite or virus in culture. The class given is cell-based, HCV genotype 1b. Conditions: Hepatitis C virus, Huh-7, read-out: HCV-Replicon-(Luci-ET) 1b_IC50. In general terms: Replicon systems follow genome replication, usually without infectious particles.

`COC[C@@H](C(=O)N1CCCC1)N(C(=O)C1CCCCC1)c1cc(C#CC(C)(C)C)sc1C(=O)O` [Compound 36, 3-[Cyclohexanecarbonyl-[(1S)-1-(methoxymethyl)-2-oxo-2-pyrrolidin-1-yl-ethyl]amino]-5-(3,3-dimethylbut-1-ynyl)thiophene-2-carboxylic acid]: the CC50 – broadly, the concentration that lowers cell viability or growth by half – at 72 h in data set [1] was greater than 100 µM. The IC50 in data set [2] lay in the range of 0.1 to 1 µM.

`C[C@@H](C(=O)N(C)CCO)N(c1cc(C#CC(C)(C)C)sc1C(=O)O)C(=O)[C@H]1CC[C@H](C)CC1` [Compound 37, 5-(3,3-Dimethylbut-1-ynyl)-3-[[(1S)-2-[2-hydroxyethyl(methyl)amino]-1-methyl-2-oxo-ethyl]-(trans-4-methylcyclohexanecarbonyl)amino]thiophene-2-carboxylic acid] registered a CC50 at 72 h in data set [1] greater than 100 µM. In data set [2], the IC50 was less than 0.1 µM.

Compound `COCCN(C)C(=O)[C@H](C)N(c1cc(C#CC(C)(C)C)sc1C(=O)O)C(=O)[C@H]1CC[C@H](C)CC1` [Compound 38, 5-(3,3-Dimethylbut-1-ynyl)-3-[[(1S)-2-[2-methoxyethyl(methyl)amino]-1-methyl-2-oxo-ethyl]-(trans-4-methylcyclohexanecarbonyl)amino]thiophene-2-carboxylic acid] yielded a CC50 at 72 h in data set [1] greater than 100 µM. Further, in data set [2], the IC50 was less than 0.1 µM.

In data set [1], `C[C@@H](C(=O)N1CC[C@H](CO)C1)N(c1cc(C#CC(C)(C)C)sc1C(=O)O)C(=O)[C@H]1CC[C@H](C)CC1` [Compound 39, 5-(3,3-Dimethylbut-1-ynyl)-3-[[(1S)-2-[(3S)-3-(hydroxymethyl)pyrrolidin-1-yl]-1-methyl-2-oxo-ethyl]-(trans-4-methylcyclohexanecarbonyl)amino]thiophene-2-carboxylic acid] registered a CC50 at 72 h greater than 100 µM. Besides, the IC50 in data set [2] was less than 0.1 µM.

`COC1CCCN(C(=O)[C@H](C)N(c2cc(C#CC(C)(C)C)sc2C(=O)O)C(=O)[C@H]2CC[C@H](C)CC2)C1` (stereo partly drawn) [Compound 40, 5-(3,3-Dimethylbut-1-ynyl)-3-[[(1S)-2-(3-methoxy-1-piperidyl)-1-methyl-2-oxo-ethyl]-(trans-4-methylcyclohexanecarbonyl)amino]thiophene-2-carboxylic acid] returned a CC50 at 72 h in data set [1] greater than 100 µM. For the same compound, in data set [2], the IC50 is less than 0.1 µM.

In data set [1], `CN(C(=O)CN(c1cc(C#CC(C)(C)C)sc1C(=O)O)C(=O)[C@H]1CC[C@H](C)CC1)C1CCOCC1` [Compound 43] came in with a CC50 at 72 h greater than 100 µM. The IC50 in data set [2] was less than 0.1 µM.

The compound `COC1CCN(C(=O)CN(c2cc(C#CC(C)(C)C)sc2C(=O)O)C(=O)[C@H]2CC[C@H](C)CC2)CC1` [Compound 44] gave a CC50 at 72 h in data set [1] greater than 100 µM. The IC50 in data set [2] is less than 0.1 µM.

Take `CC(C)(C)C#Cc1cc(N(CC(=O)N2CCCCC2)C(=O)[C@H]2CC[C@H](C)CC2)c(C(=O)O)s1` [Compound 46]: in data set [1], the CC50 at 72 h is greater than 100 µM. Further, the IC50 in data set [2] is less than 0.1 µM.

In data set [1], `CC1COCCN1C(=O)[C@H](C)N(c1cc(C#CC(C)(C)C)sc1C(=O)O)C(=O)[C@H]1CC[C@H](C)CC1` (stereo partly drawn) [Compound 47, 5-(3,3-dimethylbut-1-ynyl)-3-[(trans-4-methylcyclohexanecarbonyl)-[(1S)-1-methyl-2-(3-methylmorpholin-4-yl)-2-oxo-ethyl]amino]thiophene-2-carboxylic acid] showed a CC50 at 72 h greater than 100 µM. For the same compound, in data set [2], the IC50 was less than 0.1 µM.

Turning to `C[C@@H]1CN(C(=O)[C@H](C)N(c2cc(C#CC(C)(C)C)sc2C(=O)O)C(=O)[C@H]2CC[C@H](C)CC2)C[C@H](C)O1` [Compound 48, 5-(3,3-Dimethylbut-1-ynyl)-3-[[(1S)-2-[(2R,6S)-2,6-dimethylmorpholin-4-yl]-1-methyl-2-oxo-ethyl]-(trans-4-methylcyclohexanecarbonyl)amino]thiophene-2-carboxylic acid], the half-maximal cytotoxic concentration (CC50) at 72 h in data set [1] was 10 to 100 µM. The IC50 in data set [2] is less than 0.1 µM.

Consider `CC1CN(C(=O)[C@H](C)N(c2cc(C#CC(C)(C)C)sc2C(=O)O)C(=O)[C@H]2CC[C@H](C)CC2)CCO1` (stereo partly drawn) [Compound 49, 5-(3,3-Dimethylbut-1-ynyl)-3-[(trans-4-methylcyclohexanecarbonyl)-[(1S)-1-methyl-2-(2-methylmorpholin-4-yl)-2-oxo-ethyl]amino]thiophene-2-carboxylic acid], for which the CC50 at 72 h in data set [1] was greater than 100 µM. Besides, the IC50 in data set [2] was less than 0.1 µM.

For the compound `C[C@@H](C(=O)N1CCOC(C)(C)C1)N(c1cc(C#CC(C)(C)C)sc1C(=O)O)C(=O)[C@H]1CC[C@H](C)CC1` [Compound 50, 5-(3,3-Dimethylbut-1-ynyl)-3-[[(1S)-2-(2,2-dimethylmorpholin-4-yl)-1-methyl-2-oxo-ethyl]-(trans-4-methylcyclohexanecarbonyl)amino]thiophene-2-carboxylic acid], in data set [1], the CC50 at 72 h was greater than 100 µM. For the same compound, in data set [2], the IC50 was less than 0.1 µM.

In data set [1], `C[C@@H](C(=O)N(C)C1CCOCC1)N(c1cc(C#CC(C)(C)C)sc1C(=O)O)C(=O)[C@H]1CC[C@H](C)CC1` [Compound 51, 5-(3,3-Dimethylbut-1-ynyl)-3-[(trans-4-methylcyclohexanecarbonyl)-[(1S)-1-methyl-2-[methyl(tetrahydropyran-4-yl)amino]-2-oxo-ethyl]amino]thiophene-2-carboxylic acid] yielded a CC50 at 72 h greater than 100 µM. Also, the IC50 in data set [2] is less than 0.1 µM.

`COC1CN(C(=O)[C@H](C)N(c2cc(C#CC(C)(C)C)sc2C(=O)O)C(=O)[C@H]2CC[C@H](C)CC2)C1` [Compound 52, 5-(3,3-Dimethylbut-1-ynyl)-3-[[(1S)-2-(3-methoxyazetidin-1-yl)-1-methyl-2-oxo-ethyl]-(trans-4-methylcyclohexanecarbonyl)amino]thiophene-2-carboxylic acid]: the CC50 at 72 h in data set [1] was greater than 100 µM. Also, the IC50 in data set [2] was less than 0.1 µM.

With `COC1CCN(C(=O)[C@H](C)N(c2cc(C#CC(C)(C)C)sc2C(=O)O)C(=O)[C@H]2CC[C@H](C)CC2)CC1` [Compound 53, 5-(3,3-Dimethylbut-1-ynyl)-3-[[(1S)-2-(4-methoxy-1-piperidyl)-1-methyl-2-oxo-ethyl]-(trans-4-methylcyclohexanecarbonyl)amino]thiophene-2-carboxylic acid], the CC50 at 72 h in data set [1] is greater than 100 µM. For the same compound, the IC50 in data set [2] is less than 0.1 µM.

`C[C@@H](C(=O)N1CCCC(O)C1)N(c1cc(C#CC(C)(C)C)sc1C(=O)O)C(=O)[C@H]1CC[C@H](C)CC1` (stereo partly drawn) [Compound 54, 5-(3,3-Dimethylbut-1-ynyl)-3-[[(1S)-2-(3-hydroxy-1-piperidyl)-1-methyl-2-oxo-ethyl]-(trans-4-methylcyclohexanecarbonyl)amino]thiophene-2-carboxylic acid] displayed a CC50 at 72 h in data set [1] greater than 100 µM. Also, the IC50 in data set [2] was less than 0.1 µM.

In the case of `CO[C@H](C)[C@@H](C(=O)N1CCOCC1)N(c1cc(C#CC(C)(C)C)sc1C(=O)O)C(=O)[C@H]1CC[C@H](C)CC1` [Compound 58, 5-(3,3-Dimethylbut-1-ynyl)-3-[[(1S,2R)-2-methoxy-1-(morpholine-4-carbonyl)propyl]-(trans-4-methylcyclohexanecarbonyl)amino]thiophene-2-carboxylic acid], the CC50 at 72 h in data set [1] was greater than 100 µM. For the same compound, in data set [2], the IC50 is less than 0.1 µM.

On to `C[C@@H](O)[C@@H](C(=O)N(C)C)N(c1cc(C#CC(C)(C)C)sc1C(=O)O)C(=O)[C@H]1CC[C@H](C)CC1` [Compound 59], for which the CC50 at 72 h in data set [1] is greater than 100 µM. For the same compound, the IC50 in data set [2] is less than 0.1 µM.

Take `C[C@@H](O)[C@@H](C(=O)N1CCOCC1)N(c1cc(C#CC(C)(C)C)sc1C(=O)O)C(=O)[C@H]1CC[C@H](C)CC1` [Compound 60, 5-(3,3-Dimethylbut-1-ynyl)-3-[[(1S,2R)-2-hydroxy-1-(morpholine-4-carbonyl)propyl]-(trans-4-methylcyclohexanecarbonyl)amino]thiophene-2-carboxylic acid]: the CC50 at 72 h in data set [1] is greater than 100 µM. Moreover, the IC50 in data set [2] is less than 0.1 µM.

As to `CCC1CCC(C(=O)N(c2cc(C#CC(C)(C)C)sc2C(=O)O)[C@@H](COC)C(=O)N2CCCC2)CC1` (stereo partly drawn) [Compound 63, 5-(3,3-Dimethylbut-1-ynyl)-3-[(4-ethylcyclohexanecarbonyl)-[(1S)-1-(methoxymethyl)-2-oxo-2-pyrrolidin-1-yl-ethyl]amino]thiophene-2-carb oxylic acid], the CC50 at 72 h in data set [1] lay within 10 to 100 µM. For the same compound, the IC50 in data set [2] was in the range of 0.1 to 1 µM.

`CO[C@@H](C)[C@@H](C(=O)N(C)C)N(c1cc(C#CC(C)(C)C)sc1C(=O)O)C(=O)[C@H]1CC[C@H](C)CC1` [Compound 66, 5-(3,3-Dimethylbut-1-ynyl)-3-[[(1S,2S)-1-(dimethylcarbamoyl)-2-methoxy-propyl]-(trans-4-methylcyclohexanecarbonyl)amino]thiophene-2-carboxylic acid]: in data set [1], the CC50 at 72 h was greater than 100 µM. Further, the IC50 in data set [2] is less than 0.1 µM.

`CC(C)C#Cc1cc(N(CC(=O)N(C)C)C(=O)C2CCC(C)CC2)c(C(=O)O)s1` (stereo not shown) [Compound 67]: the CC50 at 72 h in data set [1] is greater than 100 µM. For the same compound, the IC50 in data set [2] is less than 0.1 µM.

In data set [1], `CCC[C@@H](C(=O)N(C)C)N(c1cc(C#CC(C)(C)C)sc1C(=O)O)C(=O)[C@H]1CC[C@H](C)CC1` [Compound 68, 5-(3,3-Dimethylbut-1-ynyl)-3-[[(1S)-1-(dimethylcarbamoyl)butyl]-(trans-4-methylcyclohexanecarbonyl)amino]thiophene-2-carboxylic acid] had a CC50 at 72 h of 10 to 100 µM. In data set [2], the IC50 is less than 0.1 µM.

Consider `CC(C)C#Cc1cc(N(CC(=O)N2CCNCC2)C(=O)C2CCC(C)CC2)c(C(=O)O)s1` (stereo not shown) [Compound 69], for which the CC50 at 72 h in data set [1] was greater than 100 µM. In data set [2], the IC50 is less than 0.1 µM.

`CNC(=O)CN(C(=O)C1CCC(C)CC1)c1cc(C#CC(C)C)sc1C(=O)O` (stereo not shown) [Compound 70]: in data set [1], the CC50 at 72 h was greater than 100 µM. Besides, in data set [2], the IC50 was less than 0.1 µM.

Consider `CO[C@@H](C)[C@H](C(=O)N1CCOCC1)N(c1cc(C#CC(C)(C)C)sc1C(=O)O)C(=O)[C@H]1CC[C@H](C)CC1` [Compound 72, 5-(3,3-dimethylbut-1-ynyl)-3-[[(1R,2S)-2-methoxy-1-(morpholine-4-carbonyl)propyl]-(trans-4-methylcyclohexanecarbonyl)amino]thiophene-2-carboxylic acid], for which, in data set [1], the CC50 at 72 h is greater than 100 µM. Further, the IC50 in data set [2] is less than 0.1 µM.

The values above are taken from patent US20130190289A1, “COMPOUNDS AND METHODS FOR THE TREATMENT OR PREVENTION OF FLAVIVIRUS INFECTIONS” (priority 2010, published 2013).
